Reference: patent US20220169628A1 (University of Florida Research Foundation, Incorporated, priority 2019, published 2022)
pIC50: −log10 of the molar value.

Experiments:
Type in all cases: cell-based
MOLT-4 cells [1] = assay: Cell viability assay, MTS, 72 h, MOLT-4; conditions: Homo sapiens; MOLT-4 cells, 72 h, MTS
Procedure: (§1) Cancer cells from different tissue origins including acute lymphoblastic leukemia (MOLT4 and RS4; 11), small cell lung cancer (NCI-H146 or simply H146), and multiple myeloma (EJM and H929) were incubated with increasing concentrations of Examples 1-21 or ABT-263 for 72 h. Cell viability was measured by tetrazolium-based MTS assay. 5×10^4 to 1×10^5 suspension cells or 3×10^3 to 5×10^3 adherent cells were seeded and treated in 96-well plates for 72 h. The EC50 values of individual agents were calculated with GraphPad Prism.

RS4 cells = assay: Cell viability assay, MTS, 72 h, RS4;11; conditions: Homo sapiens
Procedure: as §1

RS4;11 cells = assay: Cell viability assay, MTS, 48 h, RS4;11; conditions: 48 hours, read-out: IC50 (48 hours) RS4;11
Procedure: (§2) Acute lymphoblastic leukemia cells (MOLT-4 and RS4; 11) or small cell lung cancer (NCI-H146 or simply H146) were incubated with increasing concentrations of Bcl-xL degraders for 48 h. Cell viability was measured by tetrazolium-based MTS assay.

MOLT-4 cells [2] = assay: Cell viability assay, MTS, 48 h, MOLT-4; conditions: 48 hours, read-out: IC50 (48 hours) MOLT-4
Procedure: as §2

Compound	pIC50 (MOLT-4 cells [1])	pIC50 (RS4 cells)	pIC50 (RS4;11 cells)	pIC50 (MOLT-4 cells [2])
Cc1ncsc1-c1ccc([C@H](C)NC(=O)[C@@H]2C[C@@H](O)CN2C(=O)[C@@H](NC(=O)CCCCC(=O)NCC2(C)CCC(c3ccc(Cl)cc3)=C(CN3CCN(c4ccc(C(=O)NS(=O)(=O)c5ccc(N[C@H](CCN6CCOCC6)CSc6ccccc6)c(S(=O)(=O)C(F)(F)F)c5)cc4)CC3)C2)C(C)(C)C)cc1 (stereo partly drawn) [Compound 49, N′-((4′-chloro-4-methyl-6-((4-(4-(((4-(((R)-4-morpholino-1-(phenylthio)butan-2-yl)amino)-3-((trifluoromethyl)sulfonyl)phenyl)sulfonyl)carbamoyl)phenyl)piperazin-1-yl)methyl)-2,3,4,5-tetrahydro-[1,1′-biphenyl]-4-yl)methyl)-N^6—((S)-1-((2S,4R)-4-hydroxy-2-(((S)-1-(4-(4-methylthiazol-5-yl)phenyl)ethyl)carbamoyl)pyrrolidin-1-yl)-3,3-dimethyl-1-oxobutan-2-yl)adipamide]	6.47	6.52	–	–
(2S,4R)-1-((S)-2-(12-(4-(4-chlorophenyl)-5-((4-(4-(((4-(((R)-4-morpholino-1-(phenylthio)butan-2-yl)amino)-3-((trifluoromethyl)sulfonyl)phenyl)sulfonyl)carbamoyl)phenyl)piperazin-1-yl)methyl)-3,6-dihydropyridin-1(2H)-yl)-12-oxododecanamido)-3,3-dimethylbutanoyl)-4-hydroxy-N—((S)-1-(4-(4-methylthiazol-5-yl)phenyl)ethyl)pyrrolidine-2-carboxamide [Example 7]	–	–	6.82 to 7.30	6.82 to 7.30
(S)-13-((2S,4R)-4-hydroxy-2-(((S)-1-(4-(4-methylthiazol-5-yl)phenyl)ethyl)carbamoyl)pyrrolidine-1-carbonyl)-14,14-dimethyl-11-oxo-3,6,9-trioxa-12-azapentadecyl 4-(4-chlorophenyl)-5-((4-(4-(((4-(((R)-4-morpholino-1-(phenylthio)butan-2-yl)amino)-3-((trifluoromethyl)sulfonyl)phenyl)sulfonyl)carbamoyl)phenyl)piperazin-1-yl)methyl)-3,6-dihydropyridine-1(2H)-carboxylate [Example 8]	–	–	6.30 to 6.82	6.30 to 6.82

Second part, led by results:

pIC50 (MOLT-4 cells [1])	pIC50 (RS4 cells)	Compound	pIC50 (RS4;11 cells)	pIC50 (MOLT-4 cells [2])
6.47	5.76	Cc1ncsc1-c1ccc([C@H](C)NC(=O)[C@@H]2C[C@@H](O)CN2C(=O)[C@@H](NC(=O)COCCOCCOCCOCCOC(=O)N2CCC(c3ccc(Cl)cc3)=C(CN3CCN(c4ccc(C(=O)NS(=O)(=O)c5ccc(N[C@H](CCN6CCOCC6)CSc6ccccc6)c(S(=O)(=O)C(F)(F)F)c5)cc4)CC3)C2)C(C)(C)C)cc1 [Compound 36, (S)-16-((2S,4R)-4-hydroxy-2-(((S)-1-(4-(4-methylthiazol-5-yl)phenyl)ethyl)carbamoyl)pyrrolidine-1-carbonyl)-17,17-dimethyl-14-oxo-3,6,9,12-tetraoxa-15-azaoctadecyl 4-(4-chlorophenyl)-5-((4-(4-(((4-(((R)-4-morpholino-1-(phenylthio)butan-2-yl)amino)-3-((trifluoromethyl)sulfonyl)phenyl)sulfonyl)carbamoyl)phenyl)piperazin-1-yl)methyl)-3,6-dihydropyridine-1(2H)-carboxylate]	–	–
6.73	7.00	Cc1ncsc1-c1ccc([C@H](C)NC(=O)[C@@H]2C[C@@H](O)CN2C(=O)[C@@H](NC(=O)CCCCCC(=O)NCC2(C)CCC(c3ccc(Cl)cc3)=C(CN3CCN(c4ccc(C(=O)NS(=O)(=O)c5ccc(N[C@H](CCN6CCOCC6)CSc6ccccc6)c(S(=O)(=O)C(F)(F)F)c5)cc4)CC3)C2)C(C)(C)C)cc1 (stereo partly drawn) [Compound 50, N^1-((4′-chloro-4-methyl-6-((4-(4-(((4-(((R)-4-morpholino-1-(phenylthio)butan-2-yl)amino)-3-((trifluoromethyl)sulfonyl)phenyl)sulfonyl)carbamoyl)phenyl)piperazin-1-yl)methyl)-2,3,4,5-tetrahydro-[1,1′-biphenyl]-4-yl)methyl)-N^7—((S)-1-((2S,4R)-4-hydroxy-2-(((S)-1-(4-(4-methylthiazol-5-yl)phenyl)ethyl)carbamoyl)pyrrolidin-1-yl)-3,3-dimethyl-1-oxobutan-2-yl)heptanediamide]	–	–
